Test results reported in US10858339B2, “Aryl cyclopropyl-amino-isoquinolinyl amide compounds” (priority 2017, dated 2020).
Structures can show the parent of a compound that is named as a salt.

How the values were obtained:
ROCK1 = ROCK1 (Homo sapiens, UniProt Q13464); test: ROCK kinase inhibition assay, ROCK1 enzyme; format: biochemical;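 note: kinase reaction with 0.5 µM final ATP, 75 min at room temperature, remaining ATP read by luminescence, percent of DMSO-only control minus background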
ROCK2 = ROCK2 (Homo sapiens, UniProt O75116); test: biochemical
Chain of ROCK2 (O75116 whole entry, species assumed): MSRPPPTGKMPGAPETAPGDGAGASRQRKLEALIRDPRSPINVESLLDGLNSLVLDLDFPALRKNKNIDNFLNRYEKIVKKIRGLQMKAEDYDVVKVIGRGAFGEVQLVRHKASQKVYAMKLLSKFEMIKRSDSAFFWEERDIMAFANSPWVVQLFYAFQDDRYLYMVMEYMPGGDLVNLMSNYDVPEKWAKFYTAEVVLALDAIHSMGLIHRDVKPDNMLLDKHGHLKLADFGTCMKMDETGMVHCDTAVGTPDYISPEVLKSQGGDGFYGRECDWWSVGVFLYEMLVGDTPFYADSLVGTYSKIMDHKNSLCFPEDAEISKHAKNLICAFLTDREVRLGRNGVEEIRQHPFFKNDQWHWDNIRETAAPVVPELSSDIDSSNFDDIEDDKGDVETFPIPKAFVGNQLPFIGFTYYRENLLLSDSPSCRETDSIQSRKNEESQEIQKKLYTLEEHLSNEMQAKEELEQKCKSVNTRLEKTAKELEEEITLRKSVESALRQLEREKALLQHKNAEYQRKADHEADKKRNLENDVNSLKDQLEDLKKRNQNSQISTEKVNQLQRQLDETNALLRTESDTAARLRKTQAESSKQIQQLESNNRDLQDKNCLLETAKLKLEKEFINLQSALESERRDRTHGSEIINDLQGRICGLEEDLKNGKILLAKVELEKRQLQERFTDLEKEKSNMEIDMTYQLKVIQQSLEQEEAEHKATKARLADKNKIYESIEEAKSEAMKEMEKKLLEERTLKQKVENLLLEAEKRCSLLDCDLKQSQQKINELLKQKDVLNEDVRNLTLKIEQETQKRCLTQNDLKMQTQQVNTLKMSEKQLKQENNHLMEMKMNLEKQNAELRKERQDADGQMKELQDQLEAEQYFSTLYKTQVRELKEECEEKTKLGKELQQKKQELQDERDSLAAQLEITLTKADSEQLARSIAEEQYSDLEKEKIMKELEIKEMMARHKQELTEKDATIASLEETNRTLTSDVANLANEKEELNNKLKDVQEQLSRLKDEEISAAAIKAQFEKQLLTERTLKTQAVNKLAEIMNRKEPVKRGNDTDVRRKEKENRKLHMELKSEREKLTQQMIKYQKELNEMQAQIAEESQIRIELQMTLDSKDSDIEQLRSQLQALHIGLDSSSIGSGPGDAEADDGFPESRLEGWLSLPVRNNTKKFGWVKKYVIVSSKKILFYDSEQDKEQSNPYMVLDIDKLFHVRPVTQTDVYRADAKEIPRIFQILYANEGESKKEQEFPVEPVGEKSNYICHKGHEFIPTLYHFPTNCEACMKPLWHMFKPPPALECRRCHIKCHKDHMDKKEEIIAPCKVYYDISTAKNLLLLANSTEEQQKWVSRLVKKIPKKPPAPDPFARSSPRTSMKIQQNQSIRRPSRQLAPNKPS

JAK2 = JAK2 (Homo sapiens, UniProt O60674); test: JAK kinase assay, JAK2 enzyme; format: biochemical; settings: for Ki: Table 15, in brackets in the activity cell, read-out: JAK2 activity;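 for all read-outs here: JAK2 kinase reaction run 75 min at room temperature, leftover ATP read by Kinase-Glo luminescence, 11-point dilution series in 2.5% DMSO, percent of inhibitor-free DMSO control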
Chain of JAK2 (O60674 whole entry, species assumed, canonical isoform): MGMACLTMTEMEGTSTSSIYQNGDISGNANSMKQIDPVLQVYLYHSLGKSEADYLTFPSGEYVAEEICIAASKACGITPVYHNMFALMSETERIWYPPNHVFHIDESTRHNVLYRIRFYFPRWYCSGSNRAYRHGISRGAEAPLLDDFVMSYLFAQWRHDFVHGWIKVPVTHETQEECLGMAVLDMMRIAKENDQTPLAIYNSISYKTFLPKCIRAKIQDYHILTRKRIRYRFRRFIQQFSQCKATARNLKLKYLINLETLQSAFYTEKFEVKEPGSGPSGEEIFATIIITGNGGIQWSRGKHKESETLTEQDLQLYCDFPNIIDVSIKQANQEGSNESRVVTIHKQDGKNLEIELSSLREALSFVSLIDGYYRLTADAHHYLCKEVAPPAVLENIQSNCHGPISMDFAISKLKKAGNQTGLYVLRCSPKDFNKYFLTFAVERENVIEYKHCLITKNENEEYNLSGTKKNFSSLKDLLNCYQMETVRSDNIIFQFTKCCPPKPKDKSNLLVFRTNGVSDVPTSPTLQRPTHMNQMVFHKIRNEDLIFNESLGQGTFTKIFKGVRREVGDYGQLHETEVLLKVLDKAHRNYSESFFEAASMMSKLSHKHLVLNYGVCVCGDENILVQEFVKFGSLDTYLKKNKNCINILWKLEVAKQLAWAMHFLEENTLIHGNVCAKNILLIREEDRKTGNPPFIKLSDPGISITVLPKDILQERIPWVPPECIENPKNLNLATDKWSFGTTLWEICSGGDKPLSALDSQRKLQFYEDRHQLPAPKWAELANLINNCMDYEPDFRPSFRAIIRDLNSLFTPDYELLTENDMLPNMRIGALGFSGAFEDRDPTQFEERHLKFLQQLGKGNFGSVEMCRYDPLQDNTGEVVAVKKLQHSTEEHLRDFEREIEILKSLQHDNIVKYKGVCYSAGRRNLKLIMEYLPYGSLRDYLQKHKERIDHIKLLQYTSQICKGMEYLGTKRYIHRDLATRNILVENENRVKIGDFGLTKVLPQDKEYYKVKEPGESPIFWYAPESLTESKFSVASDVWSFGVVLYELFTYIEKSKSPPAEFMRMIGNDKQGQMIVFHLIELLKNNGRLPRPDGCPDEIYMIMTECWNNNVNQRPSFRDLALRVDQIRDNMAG

Rho Kinase = test: ROCK kinase inhibition assay (Rho Kinase Activity, isoform not given); format: biochemical; settings: Table 15, mostly given as ranges
Method: All compounds were initially prepared as 10 mM stocks in anhydrous dimethylsulfoxide (DMSO). A 20 μl aliquot of the 10 mM solutions was transferred to individual wells in column 1 of a 96-well polypropylene microtiter plate (Corning #3363) and diluted with DMSO to give a final compound concentration of 4 mM. Test compounds were then serially diluted 1:5 in DMSO for an 11-point concentration response and further diluted in the assay buffer bringing all compound concentrations to a final range of 100 μM to […] in 2.5% DMSO. The assay was performed in white 96-well, flat-bottom, half-area, non-binding assay plate (Corning #3642) in assay buffer consisting of 20 mM HEPES (pH 7.5), 10 mM MgCl2*6H2O, 100 μM sodium orthovanadate, 0.05% CHAPS and 0.1% bovine serum albumin. A 10 μL aliquot of compound from each well of the intermediate dilution plate and 20 μL of a 2× substrate/enzyme solution containing acceptor substrate (800 nM RSK2 peptide […] (SEQ ID NO: 1)), ROCK2 enzyme (10 nM), or ROCK1 enzyme, and 1,4-Dithiothreitol (DTT, 2 uM) were added to all wells. The reaction was initiated by the addition of 10 μL of 4× stock solution ATP (2 μM). Reactions were thoroughly mixed manually, covered and allowed to incubate at room temperature for 75 min. Protein kinase activity was quantitated using Promega's KINASE-GLO™ luminescent Kinase Assay Kit according to the manufacturer's directions. ATP concentrations remaining in Test wells following the termination of the enzymatic reaction were compared against control wells containing equivalent amounts of DMSO containing no inhibitor (CTRL). […] Percent of Control (POC) values were determined for each concentration of compound tested according to the equation: POC=((Test well value−BKG)/(CTRL−BKG))*100
IC50 values were converted to K; […]

Chain of ROCK1 (Q13464 whole entry, species assumed): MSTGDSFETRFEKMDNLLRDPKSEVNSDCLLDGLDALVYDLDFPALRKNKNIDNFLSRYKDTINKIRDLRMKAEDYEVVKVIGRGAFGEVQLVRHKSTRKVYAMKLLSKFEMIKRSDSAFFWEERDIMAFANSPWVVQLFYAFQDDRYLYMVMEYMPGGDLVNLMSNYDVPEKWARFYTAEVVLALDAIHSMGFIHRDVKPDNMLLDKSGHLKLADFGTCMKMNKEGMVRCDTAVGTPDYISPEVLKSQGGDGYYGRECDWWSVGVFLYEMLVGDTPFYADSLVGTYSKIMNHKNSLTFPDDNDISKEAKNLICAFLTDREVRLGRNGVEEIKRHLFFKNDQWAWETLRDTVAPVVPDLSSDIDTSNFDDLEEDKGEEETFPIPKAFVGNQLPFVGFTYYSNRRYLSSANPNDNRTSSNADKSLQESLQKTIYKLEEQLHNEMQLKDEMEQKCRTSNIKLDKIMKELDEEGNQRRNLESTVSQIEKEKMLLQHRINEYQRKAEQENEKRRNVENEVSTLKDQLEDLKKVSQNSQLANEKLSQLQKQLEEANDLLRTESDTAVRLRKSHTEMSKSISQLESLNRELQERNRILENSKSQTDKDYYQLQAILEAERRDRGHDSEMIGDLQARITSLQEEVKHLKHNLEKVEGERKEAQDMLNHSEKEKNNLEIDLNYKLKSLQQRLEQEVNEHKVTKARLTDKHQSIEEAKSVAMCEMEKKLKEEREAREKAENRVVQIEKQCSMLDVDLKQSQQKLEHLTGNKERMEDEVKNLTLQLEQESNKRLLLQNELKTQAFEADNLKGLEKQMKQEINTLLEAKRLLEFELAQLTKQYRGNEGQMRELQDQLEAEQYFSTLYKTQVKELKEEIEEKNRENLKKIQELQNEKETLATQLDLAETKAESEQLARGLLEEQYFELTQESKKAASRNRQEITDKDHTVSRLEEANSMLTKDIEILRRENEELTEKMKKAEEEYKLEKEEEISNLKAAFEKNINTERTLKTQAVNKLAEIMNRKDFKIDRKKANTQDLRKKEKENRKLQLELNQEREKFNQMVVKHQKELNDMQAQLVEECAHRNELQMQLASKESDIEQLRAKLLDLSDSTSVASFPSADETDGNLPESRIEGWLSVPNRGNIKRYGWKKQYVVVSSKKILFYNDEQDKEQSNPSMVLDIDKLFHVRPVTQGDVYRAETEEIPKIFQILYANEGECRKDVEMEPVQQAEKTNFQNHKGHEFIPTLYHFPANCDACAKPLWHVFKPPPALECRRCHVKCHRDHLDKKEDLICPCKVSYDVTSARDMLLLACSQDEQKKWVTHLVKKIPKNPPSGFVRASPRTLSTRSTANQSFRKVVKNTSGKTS

Row | Ki (JAK2) | Ki (Rho Kinase) | Compound | further results
1 | – | – | O=C(Nc1ccc2cnccc2c1)[C@@H]1C[C@H]1c1ccc(S(=O)(=O)Nc2ccccc2)cc1 (racemic) [(rel)-(1R,2R)-N-(isoquinolin-6-yl)-2-(4-(N-phenylsulfamoyl)phenyl)cyclopropane-1-carboxamide] | Ki (ROCK1; ROCK1, Table 17): 154 nM; Ki (ROCK2; ROCK2, Table 17): 75 nM
2 | – | – | O=C(Nc1ccc2cnccc2c1)[C@@H]1C[C@H]1c1ccc(S(=O)(=O)NC[C@H]2CCCNC2)cc1 (relative stereo) [(rel)-(1R,2R)-N-(isoquinolin-6-yl)-2-(4-(N-(((S)-piperidin-3-yl)methyl)sulfamoyl)phenyl) cyclopropane-1-carboxamide dihydrochloride] | Ki (ROCK1; ROCK1, Table 17): 5 nM; Ki (ROCK2; ROCK2, Table 17): 5 nM
3 | – | – | O=C(Nc1ccc2cnccc2c1)[C@@H]1C[C@H]1c1ccc(S(=O)(=O)NC2CCNCC2)cc1 (relative stereo) [(rel)-(1R,2R)-N-(isoquinolin-6-yl)-2-(4-(N-(piperidin-4-yl)sulfamoyl)phenyl) cyclopropane-1-carboxamide dihydrochloride] | Ki (ROCK1; ROCK1, Table 17): 8.2 nM; Ki (ROCK2; ROCK2, Table 17): 7 nM
4 | – | – | O=C(Nc1ccc2cnccc2c1)[C@@H]1C[C@H]1c1ccc(S(=O)(=O)NCc2cccnc2)cc1 (relative stereo) [(rel)-(1R,2R)-N-(isoquinolin-6-yl)-2-(4-(N-(pyridin-3-ylmethyl)sulfamoyl)phenyl) cyclopropane-1-carboxamide] | Ki (ROCK1; ROCK1, Table 17): 25 nM; Ki (ROCK2; ROCK2, Table 17): 9 nM
5 | – | – | O=C(Nc1ccc2cnccc2c1)[C@@H]1C[C@H]1c1ccc(S(=O)(=O)N2CCNCC2)cc1 (relative stereo) [(rel)-(1R,2R)-N-(isoquinolin-6-yl)-2-(4-(piperazin-1-ylsulfonyl)phenyl) cyclopropane-1-carboxamide dihydrochloride] | Ki (ROCK1; ROCK1, Table 17): 48 nM; Ki (ROCK2; ROCK2, Table 17): 31 nM
6 | 500 to 800 nM | 150 to 400 nM | O=C(Nc1ccc2cnccc2c1)[C@@H]1C[C@H]1c1ccc(I)cc1 (relative stereo) [Example E251, rel-(1R,2R)-2-(4-iodophenyl)-N-(isoquinolin-6-yl)cyclopropane-1-carboxamide] | –
7 | – | – | O=C(Nc1ccc2cnccc2c1)[C@@H]1C[C@H]1c1ccc(S(=O)(=O)NCC2CCNCC2)cc1 (relative stereo) [drawing 663, (rel)-(1R,2R)-N-(isoquinolin-6-yl)-2-(4-(N-(piperidin-4-ylmethyl)sulfamoyl)phenyl) cyclopropane-1-carboxamide dihydrochloride] | Ki (ROCK1; ROCK1, Table 17): 9 nM; Ki (ROCK2; ROCK2, Table 17): 8 nM
8 | 1500 to 3500 nM | 30 to 60 nM | CC(C)(C)OC(=O)N1CCCC1CNC(=O)c1ccc(C2CC2C(=O)Nc2ccc3cnccc3c2)cc1 (stereo not drawn) [Example 19.1] | –
9 | 65 to 100 nM | 3 to 5 nM | O=C(NCc1ccccn1)c1ccc(C2CC2C(=O)Nc2ccc3cnccc3c2)cc1 (stereo not drawn) [Example E9] | –
10 | 400 nM | 1 to 4 nM | O=C(Nc1ccncc1)c1ccc(C2CC2C(=O)Nc2ccc3cnccc3c2)cc1 (stereo not drawn) [Example E12] | –
11 | 2500 to 9000 nM | 5 to 75 nM | O=C(NCc1ccc(C(F)(F)F)cc1)c1ccc(C2CC2C(=O)Nc2ccc3cnccc3c2)cc1 (stereo not drawn) [Example E16] | –
12 | 1000 to 1200 nM | 0.8 to 8 nM | O=C(Nc1ccc2cnccc2c1)c1ccc(C2CC2C(=O)Nc2ccc3cnccc3c2)cc1 (stereo not drawn) [Example E18] | –
13 | 300 to 350 nM | 6 to 12 nM | O=C(NCC1CCCN1)c1ccc(C2CC2C(=O)Nc2ccc3cnccc3c2)cc1 (stereo not drawn) [Example E19.2] | –
14 | 700 to 2000 nM | 0.5 to 2 nM | CC(C)(C)OC(=O)N1CCC(CNC(=O)c2ccc(C3CC3C(=O)Nc3ccc4cnccc4c3)cc2)C1 (stereo not drawn) [Example E20.1] | –
15 | 27 to 150 nM | 4 to 6 nM | O=C(NCC1CCNC1)c1ccc(C2CC2C(=O)Nc2ccc3cnccc3c2)cc1 (stereo not drawn) [Example E20.2] | –
16 | 1000 to 6000 nM | 0.5 to 1 nM | CC(C)(C)OC(=O)N1CCC(CNC(=O)c2ccc(C3CC3C(=O)Nc3ccc4cnccc4c3)cc2)CC1 (stereo not drawn) [Example E29.1] | –
17 | 375 to 570 nM | 5 to 7 nM | O=C(NCc1ccccn1)c1ccc(C2CC2C(=O)Nc2ccc3c(O)nccc3c2)cc1 (stereo not drawn) [Example E31] | –
18 | 400 to 1300 nM | 2.5 to 4.5 nM | O=C(NCc1cccnc1)c1ccc(C2CC2C(=O)Nc2cc3ccncc3cc2Br)cc1 (stereo not drawn) [Example E32] | –
19 | 75 to 110 nM | 5 to 8 nM | O=C(NCc1cccnc1)c1ccc(C2CC2C(=O)Nc2ccc3cncc(F)c3c2)cc1 (stereo not drawn) [Example E33] | –
20 | 30 to 45 nM | 7 to 14 nM | Cc1cncc2ccc(NC(=O)C3CC3c3ccc(C(=O)NCc4cccnc4)cc3)cc12 (stereo not drawn) [Example E34] | –
21 | 300 to 950 nM | 0.5 to 8 nM | O=C(NCc1cccnc1)c1ccc(C2CC2C(=O)Nc2ccc3cnccc3c2F)cc1 (stereo not drawn) [Example E35] | –
22 | 800 nM | 4.3 to 9 nM | CN(C)CCNC(=O)c1ccc(C2CC2C(=O)Nc2ccc3cnccc3c2)cc1 (stereo not drawn) [Example E37] | –

Row | Ki (JAK2) | Ki (Rho Kinase) | Compound | further results
23 | 136 nM | 7 to 9.5 nM | O=C(NCCO)c1ccc(C2CC2C(=O)Nc2ccc3cnccc3c2)cc1 (stereo not drawn) [Example E38] | –
24 | 400 nM | 5 to 7 nM | O=C(NCCN1CCCCC1)c1ccc(C2CC2C(=O)Nc2ccc3cnccc3c2)cc1 (stereo not drawn) [Example E39] | –
25 | 15 to 90 nM | 1 to 2 nM | O=C(NCc1ccccn1)c1ccc([C@@H]2C[C@H]2C(=O)Nc2ccc3cnccc3c2)cc1 [Example E54, 4-((1R,2R)-2-(isoquinolin-6-ylcarbamoyl)cyclopropyl)-N-(pyridin-2-ylmethyl)benzamide] | –
26 | – | 12000 to 52000 nM | O=C(NCc1ccccn1)c1ccc([C@H]2C[C@@H]2C(=O)Nc2ccc3cnccc3c2)cc1 [Example E55] | JAK2 activity (JAK2): inactive
27 | 40 to 75 nM | 0.1 to 0.5 nM | O=C(NCc1cccnc1)c1ccc([C@@H]2C[C@H]2C(=O)Nc2ccc3cnccc3c2F)cc1 [Example E56.1] | –
28 | 40 to 120 nM | 0.5 to 3 nM | O=C(NCc1cccnc1)c1ccc([C@@H]2C[C@H]2C(=O)Nc2ccc3cnccc3c2)cc1 [Example E56] | –
29 | 45 to 65 nM | 0.15 to 1 nM | CC(C)(C)OC(=O)N1CCC[C@@H](CNC(=O)c2ccc([C@@H]3C[C@H]3C(=O)Nc3ccc4cnccc4c3)cc2)C1 [Example E57.1] | –
30 | 7 nM | 0.1 to 1 nM | O=C(NC[C@@H]1CCCNC1)c1ccc([C@@H]2C[C@H]2C(=O)Nc2ccc3cnccc3c2)cc1 [Example E57.2] | –
31 | – | 25 nM | O=C(OCc1ccccc1)c1ccc(C2CC2C(=O)Nc2ccc3c(O)nccc3c2)cc1 (stereo not drawn) [Example E100.1] | JAK2 activity (JAK2): inactive
32 | – | 15 to 75 nM | O=C(OCc1ccccc1)c1ccc(C2CC2C(=O)Nc2cc3ccncc3cc2Cl)cc1 (stereo not drawn) [Example E104.1] | JAK2 activity (JAK2): inactive
33 | 3000 to 5000 nM | 40 to 75 nM | O=C(OCc1ccccc1)c1ccc([C@@H]2C[C@H]2C(=O)Nc2ccc3cnccc3c2)cc1 [Example E115, benzyl 4-((1R,2R)-2-(isoquinolin-6-ylcarbamoyl)cyclopropyl)benzoate] | –
34 | 400 to 700 nM | 100 to 400 nM | O=C(O)c1ccc([C@@H]2C[C@H]2C(=O)Nc2ccc3cnccc3c2)cc1 [Example E116, 4-((1R,2R)-2-(isoquinolin-6-ylcarbamoyl)cyclopropyl)benzoic acid] | –
35 | 1300 to 2700 nM | 190 to 250 nM | O=C(Nc1ccccc1Cl)OCc1ccc(C2CC2C(=O)Nc2ccc3cnccc3c2)cc1 (stereo not drawn) [Example E143] | –
36 | 1000 nM | 165 to 215 nM | C[C@@H]1OC(c2ccc(C3CC3C(=O)Nc3ccc4cnccc4c3)cc2)O[C@@H]1C (stereo partly drawn) [Example E158, trans-2-(4-((4S,5S)-4,5-dimethyl-1,3-dioxolan-2-yl)phenyl)-N-(isoquinolin-6-yl)cyclopropane-1-carboxamide] | –
37 | 200 nM | 0.7 to 1 nM | O=C(NCc1cccnc1)c1cccc(C2CC2C(=O)Nc2ccc3cnccc3c2)c1 (stereo not drawn) [Example E173] | –
38 | 5200 nM | 105 to 155 nM | CC(C)(C)OC(=O)c1ccc(C2CC2C(=O)Nc2ccc3cnccc3c2)cc1 (stereo not drawn) [Example E191.1] | –
39 | 15 nM | 3.5 to 4 nM | O=C(NCc1ccccn1)c1ccc(C2CC2C(=O)Nc2ccc3cnccc3c2)c(F)c1 (stereo not drawn) [Example E194] | –
40 | – | – | O=C(Nc1ccc2cnccc2c1)[C@@H]1C[C@H]1c1ccc(S(=O)(=O)Nc2ccccc2)cc1 [Example E265] | Ki (ROCK1; ROCK1, Table 16): 154 nM; Ki (ROCK2; ROCK2, Table 16): 75 nM
41 | – | – | O=C(Nc1ccc2cnccc2c1)[C@@H]1C[C@H]1c1ccc(S(=O)(=O)Nc2cccnc2)cc1 [Example E268] | Ki (ROCK1; ROCK1, Table 16): 85 nM; Ki (ROCK2; ROCK2, Table 16): 24 nM
42 | – | – | O=C(Nc1ccc2cnccc2c1)[C@@H]1C[C@H]1c1ccc(S(=O)(=O)NCc2cccnc2)cc1 [Example E269] | Ki (ROCK1; ROCK1, Table 16): 25 nM; Ki (ROCK2; ROCK2, Table 16): 9 nM
43 | – | – | O=C(Nc1ccc2cnccc2c1)[C@@H]1C[C@H]1c1ccc(S(=O)(=O)NCC2CCNCC2)cc1 [Example E271] | Ki (ROCK1; ROCK1, Table 16): 9 nM; Ki (ROCK2; ROCK2, Table 16): 8 nM
44 | – | – | O=C(Nc1ccc2cnccc2c1)[C@@H]1C[C@H]1c1cccc(S(=O)(=O)Nc2ccccn2)c1 [Example E279] | Ki (ROCK1; ROCK1, Table 16): 11 nM
